Measurements: ChEMBL document CHEMBL4020793 (Bioorg Med Chem Lett, 2017)

Key:
Assay type in all cases: functional, cell-based
[1] = system: HCT-116/VM46; assay: Antiproliferative activity against vinblastine-resistant human HCT116/VM46 cells assessed as cell viability after 72 hrs by MTS assay; conditions: HCT-116/VM46, 72 h
[2] = system: L1210; assay: Antiproliferative activity against mouse L1210 cells assessed as cell viability after 72 hrs by MTS assay; conditions: L1210, 72 h
[3] = system: HCT-116; assay: Antiproliferative activity against human HCT116 cells assessed as cell viability after 72 hrs by MTS assay; conditions: HCT-116, 72 h

SMILES | IC50 [1] [nM] | IC50 [2] [nM] | IC50 [3] [nM]
CC[C@]12C=CCN3CC[C@@]4(c5cc([C@@]6(C(=O)OC)C[C@@H]7CN(CCc8c6[nH]c6ccccc86)C[C@](O)(CCC#N)C7)c(OC)cc5N(C)[C@H]4[C@@](O)(C(=O)OC)[C@@H]1OC(C)=O)[C@@H]32 | 8000 | 80 | 80
CCC[C@]1(O)C[C@H]2CN(CCc3c([nH]c4ccccc34)[C@@](C(=O)OC)(c3cc4c(cc3OC)N(C)[C@H]3[C@@](O)(C(=O)OC)[C@H](OC(C)=O)[C@]5(CC)C=CCN6CC[C@]43[C@@H]65)C2)C1 | > 1000 | 300 | 420
CC[C@]12C=CCN3CC[C@@]4(c5cc([C@@]6(C(=O)OC)C[C@@H]7CN(CCc8c6[nH]c6ccccc86)C[C@](O)(CCF)C7)c(OC)cc5N(C)[C@H]4[C@@](O)(C(=O)OC)[C@@H]1OC(C)=O)[C@@H]32 | 420 | 7.5 | 6.3
CC[C@]12C=CCN3CC[C@@]4(c5cc([C@@]6(C(=O)OC)C[C@@H]7CN(CCc8c6[nH]c6ccccc86)C[C@](O)(CCN=[N+]=[N-])C7)c(OC)cc5N(C)[C@H]4[C@@](O)(C(=O)OC)[C@@H]1OC(C)=O)[C@@H]32 | 3000 | 65 | 70
CC[C@]12C=CCN3CC[C@@]4(c5cc([C@@]6(C(=O)OC)C[C@@H]7CN(CCc8c6[nH]c6ccccc86)C[C@](O)(CCO)C7)c(OC)cc5N(C)[C@H]4[C@@](O)(C(=O)OC)[C@@H]1OC(C)=O)[C@@H]32 | > 1000 | > 1000 | > 1000

Further lines, results first:

IC50 [1] [nM] | IC50 [2] [nM] | IC50 [3] [nM] | SMILES
200 | 6 | 6 | CC[C@]12C=CCN3CC[C@@]4(c5cc([C@@]6(C(=O)OC)C[C@@H]7CN(CCc8c6[nH]c6ccccc86)C[C@@]6(O)CCCC[C@H]76)c(OC)cc5N(C)[C@H]4[C@@](O)(C(=O)OC)[C@@H]1OC(C)=O)[C@@H]32
60 | 0.6 | 0.7 | CC[C@]12C=CCN3CC[C@@]4(c5cc([C@@]6(C(=O)OC)C[C@@H]7CN(CCc8c6[nH]c6ccccc86)C[C@@]6(O)CCCC[C@@H]76)c(OC)cc5N(C)[C@H]4[C@@](O)(C(=O)OC)[C@@H]1OC(C)=O)[C@@H]32
> 1000 | 480 | 790 | CCCC[C@]1(O)C[C@H]2CN(CCc3c([nH]c4ccccc34)[C@@](C(=O)OC)(c3cc4c(cc3OC)N(C)[C@H]3[C@@](O)(C(=O)OC)[C@H](OC(C)=O)[C@]5(CC)C=CCN6CC[C@]43[C@@H]65)C2)C1
